From patent publication US20230303577A1, “TEMOZOLOMIDE ANALOGS AND METHODS OF USE” (St. John's Cancer Institute, priority 2020, published 2023)
pIC50: −log10 of the molar value. Read-outs that look alike come from different tables or passages of the source.

Columns and labels:
U87MG Resistant = test: AlamarBlue cell viability, U87MG TMZ resistant; assay type: cell-based; details: Homo sapiens, U-87 MG; 72 hours
Experimental: (§1) Cells were seeded in 96-well plates. The day after, cells were treated with various concentrations of temozolomide or TP3. Cell viability was measured by AlamarBlue™ cell viability reagent after 72 hours, considering the control level of cells to be 100%.

U251 Parent (Sensitive) = test: AlamarBlue cell viability, U251 parent (TMZ sensitive); assay type: cell-based; details: Homo sapiens, U-251; 72 hours
Experimental: as §1

T98G cells = test: Cell Titer Glo viability of T98G cells with or without O6-BG pretreatment; assay type: cell-based; details: Homo sapiens
Experimental: T98G cells, which express MGMT, were treated with TMZ or test compounds with or without 3, 6, or 24 hours of pretreatment with 100 μM of O^6-benzylguanine (O^6-BG; a pseudo-substrate of MGMT that quenches the cellular store of enzyme). T98G cell lysates were probed with anti-MGMT antibody and then with anti-a tubulin (FIG. 4). In a separate experiment, TMZ or test compounds were added to T98G cells with or without 5-6 hours of pretreatment with 100 μM O^6-BG. Cell viability was measured using the Cell Titer Glo assay after 3 days of incubation and IC50 values were determined (Table 3).

[1] = Aqueous chemical stability (HPLC-MS); assay type: physicochemical
Experimental: Detection of products of non-enzymatic cleavage (AIC-TMZ, AIC-TP3, AIC-TP5, and AIC-TP9) was performed (Table 4; FIGS. 5A-5D).

U251 Resistant = test: AlamarBlue cell viability, U251 TMZ resistant; assay type: cell-based; details: Homo sapiens, U-251; 72 hours
Experimental: as §1

GBM8 = test: AlamarBlue cell viability, GBM8 patient-derived cell line; assay type: cell-based; details: 72 h, read-out: IC50, 72 h
Experimental: (§2) The effect of selected compounds on glioma cells viability was determined. The cells were plated at 2000 cells/well in 96 well plates. The day after, cells were treated with various concentrations of temozolomide or VMY-TP analogs.

[2] = Metabolic stability in mouse liver microsomes; assay type: in vitro ADME; details: for microsomal CLint: mouse, liver microsomes
Experimental: Metabolic stability of the compounds was also determined in mouse liver microsomes at five time points over 60 minutes, using HPLC-MS. Liver microsomes, as vesicles of the hepatocyte endoplasmic reticulum, contain membrane phase I enzymes namely CYPs, flavine-containing monooxygenases (FMO), esterases, amidases, and epoxide hydrolases, and also the phase II enzymes such as UGTs. For the catalytic activity of both phase I and II enzymes, addition of exogenous cofactors such as NADPH for CYPs and FMO, and UDPGA/alamethicin for UGTs is necessary.

U251 = test: cells; details: Homo sapiens, U-251, 72 h
Experimental: as §2
(§3) Activity of TP-RGD was assessed in glioma cell cultures, as described in Example 11.

U87 = test: cells; details: Homo sapiens, U-87 MG, 72 h
Experimental: as §2, §3

T98G = test: cells; details: Homo sapiens, 72 h
Experimental: as §2, §3

P-gp = test: Bidirectional Caco-2 permeability / P-gp efflux assay; assay type: in vitro ADME; details: human; for Papp A→B: read-out: Papp (AB) p-gp Inhibitor (−); for Papp B→A: read-out: Papp (BA) p-gp Inhibitor (−)
Experimental: Permeability of the compounds was evaluated in the bidirectional Caco-2 assay including identification of P-glycoprotein substrate (Pgp-mediated transport). Verapamil was used as a p-gp inhibitor. The apparent permeability (Papp) was calculated using the following equation:
Papp=VA/Area×Time×[drug]acc/[drug]initial,d
Permeability of the compounds was evaluated in the bidirectional Caco-2 assay as described in Example 11 (Table 15).

U87MG Parent (Sensitive) = test: AlamarBlue cell viability, U87MG parent (TMZ sensitive); assay type: cell-based; details: Homo sapiens, U-87 MG; 72 hours
Experimental: as §1

[3] = BBB permeability, cassette intravenous dosing; assay type: in vivo, male CD-1 mice; details: cassette IV 5 mg/kg; for % Brain / % Plasma: 5 min; for concentration at 5 min / Kp at 5 min: male, CD-1, mouse; for concentration at 5 min: 10% DMSO in PBS; for Kp at 5 min: brain/plasma
Experimental: BBB permeability of the compounds was tested in male CD-1@IGS mice using cassette intravenous dosing (Table 7 and FIGS. 6A and 6B). There were three animals in each group, given a dose of 5 mg/kg formulated in 10% DMSO in PBS (v/v) for 5 minutes. The endpoint was quantifying the parent compound using LC-MS/MS. Plasma samples (50 μl) were immediately mixed with 25 μl of H3PO4 (8.5%). Then 225 μl of internal standard (IS; 400 ng/ml meldonium in methanol) was added. After mixing by pipetting and centrifuging for 4 min at 6000 rpm, 2 μl of each supernatant was injected into LC-MS/MS system. Brain samples (100 mg±1 mg) were immediately mixed with 100 μl H3PO4 (25%) and zirconium oxide beads (115 mg±5 mg). Then 400 μl of IS solution was added and samples were disperse using a bullet blender homogenizer for 30 seconds at speed 8. The samples were centrifuged for 4 min at 14,000 rpm and 2 μl of each supernatant was injected into LC-MS/MS system.

[4] = read-out: Intrinsic clearance (Clint)
[5] = Caco-2, without verapamil, read-out: Efflux Ratio BA/AB p-gp Inhibitor (−)

Compound | pIC50 (U87MG Resistant) | pIC50 (U251 Parent (Sensitive)) | half-life at 1 μM ([1]; 0.1 M phosphate buffer pH 8.0) | half-life at 1 μM ([1]; PBS pH 7.4) | pIC50 (U251 Resistant) | microsomal CLint [2, 4] | % remaining (1 h) With co-factors [2] | % remaining (1 h) Without co-factors [2] | efflux ratio (P-gp; [5]) | Papp A→B (P-gp; Caco-2, without verapamil) | Papp B→A (P-gp; Caco-2, without verapamil) | pIC50 (U87MG Parent (Sensitive)) | % Brain [3] | % Plasma [3] | concentration at 5 min ([3]; brain, read-out: Brain Conc.) | Kp at 5 min [3] | concentration at 5 min ([3]; plasma, read-out: Plasma Conc) | further results
Cn1nnc2c(C(N)=O)ncn2c1=O [TMZ, temozolomide] | < 3.00 | 4.15 | 31 min | 59 min | 3.74 | 15 µL/min/mg | 65% | 72% | 1 | 202 nm/s | 210 nm/s | 3.51 | 7% | 93% | 1290 ng/g | 0.23 | 5.54 µg/mL | pIC50 (T98G cells; 5-6 h pretreatment with 100 μM O6-BG, 3 days, read-out: IC50 With O^6-BG pretreatment): < 3.00; pIC50 (T98G cells; 3 days, read-out: IC50 Without O^6-BG pretreatment): < 3.00; pIC50 (GBM8; GBM8, MGMT −, Table 2): 4.35; Clearance Classification (Low <8.6; High >48) [2]: Moderate; pIC50 (U251; read-out: IC50, 72 h, U251, MGMT −, Table 2): 3.05; pIC50 (U251; read-out: IC50, 72 h, U251, MGMT −, Table 14): 3.42; pIC50 (U87; read-out: IC50, 72 h, U87, MGMT −, Table 2): 3.68; pIC50 (U87; read-out: IC50, 72 h, U87MG, MGMT −, Table 14): 3.36; pIC50 (T98G; read-out: IC50, 72 h, T98G, MGMT +++, Table 14): < 3.22; pIC50 (T98G; read-out: IC50, 72 h, T98G, MGMT +, Table 2): 2.94; efflux ratio (P-gp; Caco-2, Caco-2 permeability, P-gp efflux ratio, Table 15, read-out: Efflux Ratio): 1.04
CCCCCCNC(=O)c1ncn2c(=O)n(C)nnc12 [TP3, N-hexyl-3-methyl-4-oxo-3,4-dihydroimidazo[5,1-d][1,2,3,5]tetrazine-8-carboxamide] | 3.55 | 4.15 | 39 min | 62 min | 4.20 | 358 µL/min/mg | 0% | 80% | 0.6 | 307 nm/s | 170 nm/s | 3.60 | 20% | 80% | 2080 ng/g | 0.71 | 2.92 µg/mL | pIC50 (T98G cells; read-out: IC50 With O^6-BG pretreatment): 3.17; pIC50 (T98G cells; read-out: IC50 Without O^6-BG pretreatment): 2.98; half-life at 1 μM ([1]; 0.1 M phosphate buffer pH 7.0): 119 min; pIC50 (GBM8): 5.70; microsomal CLint ([2]; read-out: Clearance Classification (Low <8.6; High >48)): > 48 µL/min/mg; pIC50 (U251; read-out: IC50, 72 h): 3.40; pIC50 (U87; read-out: IC50, 72 h): 3.40; pIC50 (T98G; read-out: IC50, 72 h): 2.90
